Measurements reported in DBAASP.
Values after ≈ are worked out from the molar mass of the structure shown. Each block holds one compound with its values, some of them ahead of it.

Experiments:
Experiment in all cases: ≥ marks a high value that may be exact or a test limit, other limits are often not marked, values filed in µg/mL are converted to µM
Escherichia coli = system: Escherichia coli
Bacillus cereus = system: Bacillus cereus
[1] = system: Staphylococcus aureus NCTC 10788
[2] = system: Escherichia coli NCTC 10418
[3] = system: Candida albicans NCPF 1467
Staphylococcus aureus = system: Staphylococcus aureus
[4] = system: Enterococcus faecalis NCTC 12697
[5] = system: Staphylococcus aureus NCTC 12493
[6] = system: Pseudomonas aeruginosa ATCC 27853
[7] = system: Staphylococcus aureus ATCC BAA-1556
Escherichia coli BW25113 = system: Escherichia coli BW25113
[8] = system: Micrococcus luteus ATCC 4698

SMILES: CC[C@H](C)[C@H](NC(=O)[C@H](C)NC(=O)[C@H](CCCCN)NC(=O)[C@@H]1CCCN1C(=O)[C@@H](NC(=O)[C@H](CC(C)C)NC(=O)[C@H](CCCCN)NC(=O)[C@H](Cc1ccccc1)NC(=O)[C@H](CC(C)C)NC(=O)[C@@H](N)Cc1ccccc1)[C@@H](C)CC)C(=O)N[C@@H](CCCCN)C(=O)NCC(=O)N[C@@H](CC(C)C)C(=O)N[C@@H](CC(C)C)C(=O)N[C@@H](CCCCN)C(=O)N[C@@H](C)C(=O)N[C@@H](Cc1ccccc1)C(=O)N[C@H](C=O)CCCCN [FLFKLIPKAIKGLLKAFK]
MIC [1]: 4 µM (≈ 8.24 µg/mL)
MIC [2]: 8 µM (≈ 16.5 µg/mL)
MIC [3]: 4 µM (≈ 8.24 µg/mL)

SMILES: CC(C)C[C@H](NC(=O)[C@@H](N)Cc1ccccc1)C(=O)NCC(=O)N[C@@H](CCCCN)C(=O)N[C@H](C(=O)N[C@@H](Cc1ccccc1)C(=O)N[C@@H](CCCCN)C(=O)N[C@@H](CCCCN)C(=O)N[C@H](C(=O)N[C@@H](CO)C(=O)N[C@@H](CCCCN)C(=O)N[C@H](C(=O)N[C@@H](Cc1ccccc1)C(=O)N1CCC[C@H]1C(=O)N[C@@H](C)C(=O)N[C@H](C(=O)N[C@@H](Cc1ccccc1)C(=O)NCC(=O)N[C@@H](CCCCN)C(=O)N[C@H](C(=O)O)C(C)C)C(C)C)C(C)C)C(C)C)C(C)C [FLGKVFKKVSKVFPAVFGKV]
MIC (Staphylococcus aureus): > 57.5 µM
MIC (Escherichia coli): 14.4 µM (≈ 32 µg/mL)
MIC (Bacillus cereus): ≥ 57.5 µM

SMILES: CC[C@H](C)[C@H](NC(=O)CNC(=O)CNC(=O)[C@H](C)NC(=O)[C@@H](NC(=O)[C@H](CCCCN)NC(=O)[C@@H]1CCCN1C(=O)[C@@H](NC(=O)[C@H](CCSC)NC(=O)[C@H](CO)NC(=O)[C@H](CC(C)C)NC(=O)[C@@H](N)Cc1ccccc1)[C@@H](C)CC)[C@@H](C)CC)C(=O)N[C@@H](C)C(=O)N[C@@H](CO)C(=O)N[C@@H](CC(C)C)C(=O)N[C@H](C(=O)N[C@@H](CCCCN)C(=O)N[C@@H](CC(N)=O)C(=O)N[C@@H](CC(C)C)C(N)=O)C(C)C [FLSMIPKIAGGIASLVKNL]
MIC [1]: 4.06 µM (≈ 8 µg/mL)
MIC [2]: ≥ 64.9 µM
MIC [3]: 8.11 µM (≈ 16 µg/mL)

SMILES: CC[C@H](C)[C@H](NC(=O)[C@H](Cc1ccc(O)cc1)NC(=O)[C@H](CC(C)C)NC(=O)[C@@H](N)Cc1ccccc1)C(=O)N[C@H](C(=O)N[C@@H](C)C(=O)N[C@@H](CCCCN)C(=O)N[C@@H](CC(C)C)C(=O)N[C@@H](CC(C)C)C(=O)N[C@@H](CO)C(=O)NCC(=O)N[C@@H](CC(C)C)C(=O)N[C@@H](CC(C)C)C(N)=O)C(C)C [FLYIVAKLLSGLL]
MIC [4]: 2 µM (≈ 2.9 µg/mL)
MIC [1]: 1 µM (≈ 1.45 µg/mL)
MIC [5]: 2 µM (≈ 2.9 µg/mL)
MIC [2]: ≥ 512 µM
MIC [6]: > 512 µM
MIC [3]: 2 µM (≈ 2.9 µg/mL)

SMILES: CC[C@H](C)[C@H](NC(=O)[C@H](C)NC(=O)CNC(=O)[C@@H](NC(=O)[C@@H](N)Cc1ccccc1)C(C)C)C(=O)N[C@@H](C)C(=O)N[C@@H](C)C(=O)N[C@@H](C)C(=O)N[C@@H](CC(C)C)C(=O)N1CCC[C@H]1C(=O)N[C@@H](Cc1cnc[nH]1)C(=O)N[C@H](C(=O)N[C@H](C(=O)N[C@@H](CO)C(=O)N[C@@H](C)C(=O)N[C@H](C(=O)N[C@@H](CCCCN)C(=O)N[C@@H](CC(N)=O)C(=O)N[C@@H](C)C(=O)N[C@@H](CC(C)C)C(=O)O)[C@@H](C)CC)[C@@H](C)CC)C(C)C [FVGAIAAALPHVISAIKNAL]
MIC [1]: 16 µM (≈ 31.6 µg/mL)
MIC [3]: ≥ 120 µM

SMILES: CC[C@H](C)[C@H](NC(=O)[C@H](Cc1c[nH]c2ccccc12)NC(=O)[C@H](CCCN=C(N)N)NC(=O)[C@H](C)NC(=O)[C@H](Cc1c[nH]c2ccccc12)NC(=O)[C@@H](N)CCCCN)C(=O)N[C@@H](CCCN=C(N)N)C(=O)N[C@@H](Cc1c[nH]c2ccccc12)C(=O)N[C@@H](CC(C)C)C(N)=O [KWARWIRWL]
MIC [7]: 12.5 µM (≈ 16.4 µg/mL)

SMILES: CC(C)C[C@H](NC(=O)[C@H](CC(C)C)NC(=O)[C@H](CCCCN)NC(=O)[C@H](CCCCN)NC(=O)[C@H](CC(C)C)NC(=O)[C@H](CC(C)C)NC(=O)[C@H](CC(C)C)NC(=O)[C@H](CC(C)C)NC(=O)[C@@H](N)CC(C)C)C(N)=O [LLLLLKKLL]
MIC [7]: ≥ 100 µM

SMILES: CC[C@H](C)[C@H](NC(=O)[C@H](Cc1ccccc1)NC(=O)[C@H](CCCN=C(N)N)NC(=O)[C@H](CO)NC(=O)[C@@H](NC(=O)[C@H](C)NC(=O)[C@H](C)NC(=O)[C@H](CCCCN)NC(=O)[C@@H](NC(=O)[C@H](CS)NC(=O)[C@@H](NC(=O)[C@@H]1CCCN1C(=O)[C@H](CO)NC(=O)[C@H](Cc1ccc(O)cc1)NC(=O)[C@@H](N)CC(C)C)[C@@H](C)O)C(C)C)C(C)C)C(=O)NCC(=O)N[C@@H](CCCCN)C(=O)N[C@H](C(=O)N[C@@H](CO)C(=O)N[C@@H](C)C(=O)O)C(C)C [LYSPTCVKAAVSRFIGKVSA]
MIC (Escherichia coli): > 122 µM
MIC (Bacillus cereus): ≥ 122 µM

SMILES: CC[C@H](C)[C@H](NC(=O)[C@@H]1CCCN1C(=O)[C@H](CCCN=C(N)N)NC(=O)[C@H](CCCN=C(N)N)NC(=O)[C@H](Cc1c[nH]c2ccccc12)NC(=O)[C@@H](N)CCCN=C(N)N)C(=O)N[C@@H](CCCN=C(N)N)C(=O)N[C@@H](CCCN=C(N)N)C(=O)N1CCC[C@H]1C(=O)N1CCC[C@H]1C(=O)N[C@H](C(=O)N[C@@H](CCCN=C(N)N)C(=O)N1CCC[C@H]1C(=O)N1CCC[C@H]1C(=O)N[C@@H](Cc1c[nH]c2ccccc12)C(=O)N[C@@H](Cc1ccc(O)cc1)C(=O)N1CCC[C@H]1C(=O)O)[C@@H](C)CC [RWRRPIRRPPIRPPWYP]
MIC (Escherichia coli BW25113): 8 µM (≈ 18.4 µg/mL)

SMILES: CC[C@H](C)[C@H](NC(=O)[C@H](CO)NC(=O)[C@H](CCCCN)NC(=O)[C@@H](N)CO)C(=O)N1CCC[C@H]1C(=O)NCC(=O)N[C@@H](CCCN=C(N)N)C(=O)N[C@@H](CO)C(=O)NCC(=O)O [SKSIPGRSG]
MIC [8]: ≥ 75 µM

SMILES: CC(C)C[C@H](NC(=O)[C@H](Cc1c[nH]c2ccccc12)NC(=O)[C@H](Cc1c[nH]c2ccccc12)NC(=O)[C@H](CC(C)C)NC(=O)[C@H](Cc1c[nH]c2ccccc12)NC(=O)[C@H](Cc1c[nH]c2ccccc12)NC(=O)[C@H](CC(C)C)NC(=O)[C@H](Cc1c[nH]c2ccccc12)NC(=O)[C@@H](N)Cc1c[nH]c2ccccc12)C(N)=O [WWLWWLWWL]
MIC [7]: ≥ 100 µM

The next lines start with the values.

MIC (Escherichia coli): > 128 µM
MIC (Bacillus cereus): ≥ 128 µM
SMILES: CC[C@H](C)[C@H](NC(=O)[C@H](CC(C)C)NC(=O)[C@H](CCCN=C(N)N)NC(=O)[C@H](CCC(=O)O)NC(=O)[C@H](CC(C)C)NC(=O)[C@@H](NC(=O)[C@@H]1CCCN1C(=O)[C@H](CC(C)C)NC(=O)[C@H](C)NC(=O)[C@H](Cc1ccccc1)NC(=O)[C@H](C)NC(=O)[C@H](C)NC(=O)[C@@H](NC(=O)[C@H](CCCCN)NC(=O)CNC(=O)[C@@H](NC(=O)CNC(=O)[C@@H](NC(=O)[C@H](C)NC(=O)[C@H](C)N)[C@@H](C)O)[C@@H](C)O)[C@@H](C)O)C(C)C)C(=O)O [AATGTGKTAAFALPVLERLI]

MIC [7]: ≥ 100 µM
SMILES: CC(C)C[C@H](NC(=O)[C@H](CC(C)C)NC(=O)[C@H](CC(C)C)NC(=O)[C@H](CC(C)C)NC(=O)[C@H](CC(C)C)NC(=O)[C@H](CC(C)C)NC(=O)[C@H](CCCCN)NC(=O)[C@H](CC(C)C)NC(=O)[C@@H](N)CCCCN)C(N)=O [KLKLLLLLL]

MIC [7]: 12.5 µM (≈ 17 µg/mL)
SMILES: CC[C@H](C)[C@H](NC(=O)[C@H](Cc1c[nH]c2ccccc12)NC(=O)[C@H](CCCN=C(N)N)NC(=O)[C@H](CCCN=C(N)N)NC(=O)[C@H](Cc1c[nH]c2ccccc12)NC(=O)[C@@H](N)CCCCN)C(=O)N[C@@H](CCCN=C(N)N)C(=O)N[C@@H](Cc1c[nH]c2ccccc12)C(=O)N[C@@H](C)C(N)=O [KWRRWIRWA]

MIC (Escherichia coli BW25113): 8 µM (≈ 18.3 µg/mL)
SMILES: CC[C@H](C)[C@H](NC(=O)[C@@H]1CCCN1C(=O)[C@H](Cc1c[nH]c2ccccc12)NC(=O)[C@H](CCCN=C(N)N)NC(=O)[C@H](Cc1c[nH]c2ccccc12)NC(=O)[C@@H](N)CCCN=C(N)N)C(=O)N[C@@H](CCCN=C(N)N)C(=O)N[C@@H](CCCN=C(N)N)C(=O)N1CCC[C@H]1C(=O)N1CCC[C@H]1C(=O)N[C@H](C(=O)N[C@@H](CCCN=C(N)N)C(=O)N1CCC[C@H]1C(=O)N1CCC[C@H]1C(=O)N[C@@H](Cc1ccccc1)C(=O)N[C@@H](Cc1ccc(O)cc1)C(=O)N1CCC[C@H]1C(=O)O)[C@@H](C)CC [RWRWPIRRPPIRPPFYP]

MIC [7]: 6.25 µM (≈ 9.02 µg/mL)
SMILES: CC(C)C[C@H](NC(=O)[C@H](Cc1c[nH]c2ccccc12)NC(=O)[C@H](Cc1c[nH]c2ccccc12)NC(=O)[C@H](CC(C)C)NC(=O)[C@H](Cc1c[nH]c2ccccc12)NC(=O)[C@H](CCCN=C(N)N)NC(=O)[C@H](CC(C)C)NC(=O)[C@H](Cc1c[nH]c2ccccc12)NC(=O)[C@@H](N)Cc1c[nH]c2ccccc12)C(N)=O [WWLRWLWWL]
